Measurements as given in patent US8058437B2, “(Pyrroloquinoxalinyl) pyrazinecarbohydrazide-oxalic acid co-crystal for treatment of cancer and other diseases” (Novelix Pharmaceuticals, Inc., priority 2008, dated 2011).
Like-named read-outs stand apart in the source and are kept apart here.

Test: Pharmacokinetic experiments in rats (IV, oral suspension, oral solution)
Assay type: in vivo
Details: male, rat, plasma; for bioavailability: adjusted for dose, read-out: Bioavailability
Description: The oral suspension formulation was prepared by suspending the test article in 5% PEG-200/95% of a 0.5% solution of methylcellulose. The concentration of the test article was such that a dosing volume of 10 mL/kg delivered the intended dose level. The oral solution formulations of NVX-144 and NVX-412 were prepared by dissolving the test article in 10% by volume dimethyl acetamide, followed by 60% by volume PEG-400, and then adding slowly a solution of 30% Captisol® in 50 mM lactic acid to provide the remaining 30% of volume. The concentration of the test article was such that a dosing volume of 10 mL/kg delivered the intended dose level. The IV formulation of NVX-412 was prepared by dissolving the test article in 10% by volume dimethyl acetamide, followed by 10% by volume PEG-400, and then adding slowly a solution of 10% Captisol® in 50 mM lactic acid to provide the remaining 80% of volume. The concentration of the test articles was such that a dosing volume of 2.5 mL/kg delivered the intended dose level. The doses administered were based on the body weight of each animal taken shortly before dosing. The formulations were used immediately after preparation.
A total of 15 rats were assigned to the study. Five groups of three male rats each comprised the study. Each group was treated once by oral gavage or intravenous injection via the tail vein as specified in Table 3 below.
The animals were fasted overnight prior to dosing and the feed returned approximately 2 hours post-dosing. The dose for each animal was based on the most recent body weight. Oral doses were administered by gavage. Animals received 10 mL/kg per single oral dose. Intravenous doses were administered by tail vein injection. The dose for each animal was based on the most recent body weight. Animals were dosed at 2.5 mL/kg per single intravenous dose.
Blood was collected from the animals in Groups 1 through 5 for pharmacokinetic analysis. Approximately 0.3 mL of blood was collected in potassium EDTA tubes via the orbital plexus at four time points (30 minutes, 1 hour, 4 hours, and 8 hours post-dose) from each rat treated by the oral route, and the blood samples were processed to prepare plasma. Blood was collected at four time points (5 minutes, 30 minutes, 1 hour, and 2 hours post-dose) from each rat treated by the intravenous route, and the blood samples were processed to prepare plasma. Animals were terminated (without necropsy) following their final sample collection.
The whole blood samples were centrifuged (˜1500×g) for a minimum of 10 minutes in a refrigerated centrifuge (set at ˜5° C.). Plasma was prepared and transferred within 30 minutes of blood collection/centrifugation to appropriately labeled tubes. The tubes were then frozen and stored in the dark at ≦−70° C. until analysis. The plasma samples were analyzed by LC-MS/MS to determine the plasma concentrations of NVX-144 and NVX-412. Pharmacokinetic analysis of the plasma concentration data was conducted using non-compartmental analysis with WinNonlin Version 4.1.

[1] = iv, 5 mg/kg, IV 5 mg/kg, Mean of 3
[2] = iv, 5 mg/kg, IV 5 mg/kg, individual animals
[3] = oral, 20 mg/kg, Group 5, PO-Solution 20 mg/kg, Mean
[4] = po, 20 mg/kg, Group 3, PO-Suspension 20 mg/kg, individual animals
[5] = po, 20 mg/kg, Group 5, PO-Solution 20 mg/kg, Mean N=3

O=C(NNc1nc2cc(F)ccc2n2cccc12)c1cnccn1.O=C(O)C(=O)O [NVX-412, N′-(7-fluoropyrrolo[1,2a]quinoxalin-4-yl)pyrazine-2-carbohydrazide oxalic acid co-crystal]
concentration at 0.083 h [1]: 1.84 µg/mL | concentration at 0.083 h [2]: 1.81 µg/mL | concentration at 0.5 h (iv, 5 mg/kg, IV 5 mg/kg, 0.5 h, Mean of 3): 0.477 µg/mL | concentration at 0.5 h (iv, 5 mg/kg, IV 5 mg/kg, 0.5 h, individual animals): 0.488 µg/mL | concentration at 1 h (iv, 5 mg/kg, IV 5 mg/kg, 1 h, Mean of 3): 0.273 µg/mL | concentration at 1 h (iv, 5 mg/kg, IV 5 mg/kg, 1 h, individual animals): 0.288 µg/mL | concentration at 2 h [1]: 0.165 µg/mL | concentration at 2 h [2]: 0.167 µg/mL | AUC [1]: 1.07 µg·h/mL | AUC(0-inf) [1]: 1.31 µg·h/mL | clearance [1]: 3.81 L/h/kg | Cmax (iv, 5 mg/kg, IV 5 mg/kg, Mean of 3, read-out: Cmax): 1.84 µg/mL | half-life (iv, 5 mg/kg, IV 5 mg/kg, Mean of 3, read-out: T ½ (converted)): 1 h | Tmax (iv, 5 mg/kg, IV 5 mg/kg, Mean of 3, read-out: Tmax): 0.083 h | Vd (iv, 5 mg/kg, IV 5 mg/kg, Mean of 3, read-out: Vss): 3.98 L/kg | AUC [2]: 1.07 µg·h/mL | AUC(0-inf) [2]: 1.32 µg·h/mL | clearance [2]: 3.8 L/h/kg | Cmax (iv, 5 mg/kg, IV 5 mg/kg, individual animals, read-out: Cmax): 1.81 µg/mL | half-life (iv, 5 mg/kg, IV 5 mg/kg, individual animals, read-out: T ½ (converted)): 1.01 h | Tmax (iv, 5 mg/kg, IV 5 mg/kg, individual animals, read-out: Tmax): 0.08 h | Vd (iv, 5 mg/kg, IV 5 mg/kg, individual animals, read-out: Vss): 3.96 L/kg | half-life (iv, 5 mg/kg, administered intravenously, range over animals, read-out: terminal plasma half-life): 0.93 to 1.15 h | concentration at 0.5 h (oral, 20 mg/kg, Group 3, PO-Suspension 20 mg/kg, 0.5 hr, Mean): 0.487 µg/mL | concentration at 0.5 h (oral, 20 mg/kg, Group 3, PO-Suspension 20 mg/kg, 0.5 hr, individual animals): 0.499 µg/mL | concentration at 1 h (oral, 20 mg/kg, Group 3, PO-Suspension 20 mg/kg, 1 hr, Mean): 0.525 µg/mL | concentration at 1 h (oral, 20 mg/kg, Group 3, PO-Suspension 20 mg/kg, 1 hr, individual animals): 0.525 µg/mL | concentration at 4 h (oral, 20 mg/kg, Group 3, PO-Suspension 20 mg/kg, Mean): 0.257 µg/mL | concentration at 4 h (oral, 20 mg/kg, Group 3, PO-Suspension 20 mg/kg, individual animals): 0.341 µg/mL | concentration at 8 h (oral, 20 mg/kg, Group 3, PO-Suspension 20 mg/kg, Mean, only 2 replicates available): 0.00927 µg/mL | concentration at 0.5 h (oral, 20 mg/kg, Group 5, PO-Solution 20 mg/kg, 0.5 hr, Mean): 0.626 µg/mL | concentration at 0.5 h (oral, 20 mg/kg, Group 5, PO-Solution 20 mg/kg, 0.5 hr, individual animals): 0.732 µg/mL | concentration at 1 h (oral, 20 mg/kg, Group 5, PO-Solution 20 mg/kg, 1 hr, Mean): 0.601 µg/mL | concentration at 1 h (oral, 20 mg/kg, Group 5, PO-Solution 20 mg/kg, 1 hr, individual animals): 0.628 µg/mL | concentration at 4 h [3]: 0.243 µg/mL | concentration at 4 h (oral, 20 mg/kg, Group 5, PO-Solution 20 mg/kg, individual animals): 0.259 µg/mL | concentration at 8 h [3]: 0.0162 µg/mL | AUC(0-inf) (po, 20 mg/kg, Group 3, PO-Suspension 20 mg/kg, Mean N=2): 2.31 µg·h/mL | half-life (po, 20 mg/kg, Group 3, PO-Suspension 20 mg/kg, Mean N=2, read-out: T ½ (converted)): 1.2 h | bioavailability (po, 20 mg/kg, Group 3, PO-Suspension 20 mg/kg, Mean N=2, versus mean IV AUCINF): 43.9% | AUC (po, 20 mg/kg, Group 3, PO-Suspension 20 mg/kg, Mean N=3): 2.07 µg·h/mL | Cmax (po, 20 mg/kg, Group 3, PO-Suspension 20 mg/kg, Mean N=3, read-out: Cmax): 0.525 µg/mL | Tmax (po, 20 mg/kg, Group 3, PO-Suspension 20 mg/kg, Mean N=3, read-out: Tmax): 1 h | AUC [4]: 2.39 µg·h/mL | AUC(0-inf) [4]: 2.41 µg·h/mL | Cmax (po, 20 mg/kg, Group 3, PO-Suspension 20 mg/kg, individual animals, read-out: Cmax): 0.525 µg/mL | half-life (po, 20 mg/kg, Group 3, PO-Suspension 20 mg/kg, individual animals, read-out: T ½ (converted)): 1.28 h | Tmax (po, 20 mg/kg, Group 3, PO-Suspension 20 mg/kg, individual animals, read-out: Tmax): 1 h | bioavailability (po, 20 mg/kg, Group 3, PO-Suspension 20 mg/kg, individual animals, versus mean IV AUCINF): 45.9% | AUC [5]: 2.25 µg·h/mL | AUC(0-inf) [5]: 2.29 µg·h/mL | Cmax (po, 20 mg/kg, Group 5, PO-Solution 20 mg/kg, Mean N=3, read-out: Cmax): 0.643 µg/mL | half-life (po, 20 mg/kg, Group 5, PO-Solution 20 mg/kg, Mean N=3, read-out: T ½ (converted)): 1.4 h | Tmax (po, 20 mg/kg, Group 5, PO-Solution 20 mg/kg, Mean N=3, read-out: Tmax): 0.67 h | bioavailability (po, 20 mg/kg, Group 5, PO-Solution 20 mg/kg, Mean N=3, versus mean IV AUCINF): 43.5%
